≈ marks a conversion by molar mass, not a printed value.
Tests used:
[1] = Solubility at a pH 7.2 phosphate buffer, 37 degrees celsius (N=6); type: physicochemical
[2] = Compound was tested for Octanol / pH 7.2 phosphate buffer distribution coefficient (N=2-3); type: physicochemical
[3] = Acid dissociation constant was determined.; type: ADME
[4] = target: Carbonic anhydrase (Homo sapiens) (UniProt P00918+P43166+P00915+P07451+P23280+O43570+Q9ULX7+Q16790+P22748+Q8N1Q1+Q9Y2D0+P35218)
Description: Compound was tested for relative in vitro carbonic anhydrase activity from human red blood cell.

[5] = Corneal permeability coefficient was determined; type: ADME
[6] = phosphate buffer, read-out: Solubility

Row | SMILES | solubility ([1]; buffer) | logD [2] | pKa [3] | pKa ([3]; read-out: pKa) | solubility [1, 6] | CAI activity [4] | Permeability coefficient [5]
1 | NS(=O)(=O)c1nc2ccc(O)cc2s1 | 1560 µg/mL (≈ 6770 µM) | 1.12 | 9.26 | 7.81 |  |  | 
2 | NS(=O)(=O)c1nc2ccc(Cl)cc2s1 |  | 2.1 |  | 7.72 | 607 µg/mL (≈ 2440 µM) | 1.23 | 
3 | CCOc1ccc2nc(S(=O)(=O)NC(C)=O)sc2c1 |  | -1.02 |  | 2.95 | 11500 µg/mL (≈ 38300 µM) | 0.0041 | 
4 | CCOc1ccc2nc(S(=O)(=O)NC)sc2c1 |  | 2.59 |  | 9.1 | 64 µg/mL (≈ 235 µM) | 0.0064 | 
5 | NS(=O)(=O)c1nc2ccccc2s1 | 1021 µg/mL (≈ 4760 µM) | 1.33 |  | 7.9 |  |  | 36.2 ×10⁻⁶ cm/s
6 | CCOc1ccc2nc(S(N)(=O)=O)sc2c1 [ETHOXZOLAMIDE] |  | 2.06 |  |  | 60 µg/mL (≈ 232 µM) |  | 43.9 ×10⁻⁶ cm/s

Source: ChEMBL document CHEMBL1122675, “Topical carbonic anhydrase inhibitors” (J Med Chem, 1984)
